Results as given in patent publication US8153593B2, “Transglutaminase inhibitors and methods of use thereof” (The Board of Trustees of the Leland Stanford Junior …, priority 2003, dated 2012).

Tests used:
[1] = tested on: DBT cells; assay: Clonogenic radiosensitizer assay; format: cell-based, murine
Method: FIG. 2: KCC009 as a radiosensitizer. Cultured DBT cells were treated with radiation alone (3.2 Gy) (left) or radiation plus 0.5 mM KCC009 (right), and plated on soft agar to evaluate cell viability.
In addition to evaluating the chemosensitizing potential of KCC009, this compound's potential as a radiosensitizer was also evaluated. For this clonogenic assays were used to measure colony formation after a single radiation treatment. The studies were performed in triplicate with varying doses of XRT and number of cells plated. […] A representative photo of a clonogenic assay plate treated with X-ray alone compared with a plate pre-treated with 0.5 mM KCC009 plus X-ray is shown in FIG. 2.

[2] = Preliminary pharmacokinetic and toxicity studies; conditions: mice
[3] = tested on: HCT-116; assay: Combination with epothilone C in colon cancer cells; format: cell-based, human; conditions: KCC009 in the 1-100 μM range
[4] = tested on: glioblastoma cells; assay: In vitro treatment of glioblastoma cells; format: cell-based
[5] = tested on: intracranial DBT tumors; assay: Intracranial DBT glioblastoma dose-finding and chemosensitizer studies; format: in vivo, mice
Method: To test whether therapeutic doses of KCC009 can modulate TG2 activity associated with intracranial glioblastomas, DBT tumors were injected intracranially in mice. As judged by MRI, the mice consistently established intracranial tumors after 7-10 days following injections, which, if untreated, caused death by 2-3 weeks. In an initial dose-finding experiment, cohorts of mice were administered 4 daily doses of vehicle or KCC009 (12.5 mg/kg, 25 mg/kg and 50 mg/kg) starting on day 11 after intra-cranial injections. Twenty-four hours later, the mice were sacrificed and tumors analyzed. […] Based on these findings a dose of 35 mg/kg was used for subsequent experiments in mice harboring intracranial DBT tumors.
To evaluate the activity of KCC009 as a chemosensitizer, mice harboring DBT tumors were treated either with 10 mg/kg BCNU alone (2 mice) or BCNU+35 mg/kg KCC009 (3 mice). As before, 4 daily drug doses were administered intraperitoneally starting on day 11. Tumors were harvested for immuno-histological analysis 24 h after the last dose.

[6] = tested on: IOMM-Lee meningioma cells; assay: Meningioma cell sensitization to radiation, TG2-fibronectin Western blot; format: cell-based; conditions: 0.5 mM KCC009
Method: FIG. 4: Top left: control IOMM meningioma cells; Top right: IOMM cells exposed to 20 Gy radiation; Bottom left: IOMM cells exposed to 0.5 mM KCC009 and 20 Gy radiation.
FIG. 5: Western blot analysis of lysates from IOMM cells treated with KCC009 and/or BCNU. Lysates were immunoprecipitated with anti-fibronectin antibodies, and the Western blots were probed with anti-TG2 antibodies. Lanes (left to right): Control, KCC009 only, BCNU only, KCC009+BCNU. KCC009 and BCNU were used at concentrations of 0.5 mM and 6.25 μM, respectively. Disappearance of TG2 from lanes treated with KCC009 illustrates loss of association of TG2 with the extracellular matrix.
To verify the therapeutic utility of KCC009 against meningiomas, IOMM-Lee meningioma cells were treated with 20 Gy of radiation with and without KCC009. […] Similar data was also obtained when KCC009 was used in combination with BCNU.

[7] = target: T1, jejunal TG2 (Rattus norvegicus, UniProt Q9WVJ6); assay: Jejunal mucosal TG2 activity after oral dosing in kneaded gluten vehicle; format: in vivo, rats; conditions: 35 mg/kg oral in kneaded gluten vehicle, 1 h after administration
T1 construct: from tissue; host or cells: rat jejunal mucosa
T1 sequence (Q9WVJ6 1-686): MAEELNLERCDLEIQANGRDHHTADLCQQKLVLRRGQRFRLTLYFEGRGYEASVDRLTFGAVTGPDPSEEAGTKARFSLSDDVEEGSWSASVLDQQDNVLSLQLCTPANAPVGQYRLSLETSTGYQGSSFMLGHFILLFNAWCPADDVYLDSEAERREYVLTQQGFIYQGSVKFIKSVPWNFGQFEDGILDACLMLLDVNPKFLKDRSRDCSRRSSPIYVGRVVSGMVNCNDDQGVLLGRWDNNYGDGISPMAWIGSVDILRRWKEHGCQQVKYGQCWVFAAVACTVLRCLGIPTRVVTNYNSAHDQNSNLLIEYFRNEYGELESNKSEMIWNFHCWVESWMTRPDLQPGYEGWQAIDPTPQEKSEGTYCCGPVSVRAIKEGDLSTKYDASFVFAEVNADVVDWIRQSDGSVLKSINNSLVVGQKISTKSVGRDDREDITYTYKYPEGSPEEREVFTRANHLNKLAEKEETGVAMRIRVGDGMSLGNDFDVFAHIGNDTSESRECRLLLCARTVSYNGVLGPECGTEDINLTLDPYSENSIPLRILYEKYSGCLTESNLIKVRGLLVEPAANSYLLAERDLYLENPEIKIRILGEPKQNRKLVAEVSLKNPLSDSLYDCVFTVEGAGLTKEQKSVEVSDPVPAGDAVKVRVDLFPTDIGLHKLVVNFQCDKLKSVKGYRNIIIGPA
Text: Due to the absence of an appropriate animal model for Celiac Sprue, the therapeutic benefit of TG2 inhibitors for this disease can only be validated in patients. Our goal is therefore to identify a safe, oral TG2 inhibitor that can block mucosal TG2 activity in the upper small intestine of Celiac Sprue patients. Such an agent could be used in the context of a short (2 week) blinded crossover trial in Celiac Sprue patients to determine if TG2 inhibition protects a Celiac Sprue patient from gluten-induced malabsorption. From available data, KCC009 may be precisely such a compound. […] To test whether orally administered KCC009 can inhibit jejunal TG2 activity, adult male rats were dosed with 35 mg/kg KCC009 in a kneaded gluten vehicle. Animals were sacrificed 1 h after administration of either vehicle-gluten (n=3) or drug-gluten (n=4), and jejunal mucosa was harvested. In vehicle treated animals, jejunal TG2 activity was 21±7 pmol/min/mg protein, whereas in KCC009 treated rats TG2 activity of 5.5±3 pmol/min/mg protein was observed. Thus, a suitable oral formulation may therefore enable local delivery of KCC009 to intestinal mucosa.

SMILES: O=C(N[C@@H](Cc1ccc(O)cc1)C(=O)NCC1CC(Br)=NO1)OCc1ccccc1 (stereo partly drawn) [Compound 59]
- enhancement of cell death in response to radiation ([1]; 0.5 mM KCC009, 3.2 Gy X-ray): two orders of magnitude
- effect of KCC009 alone on cell viability ([1]; at corresponding concentrations, no radiation): does not affect cell viability
- oral bioavailability [2]: reasonable oral bioavailability
- serum half-life [2]: short
- toxicity [2]: low toxicity
- reduction of GI50 for epothilone C [3]: > 2 fold
- apoptosis [4]: promoted apoptosis
- changes in levels of survival proteins [4]: markedly decreased levels of phosphorylated Akt, survivin, phosphorylated Bad, and phosphorylated glycogen synthetase kinase 3β; and increased levels of the pro-apoptotic BH3-only protein, Bim
- sensitivity to chemotherapeutic agents [4]: enhanced sensitivity to chemotherapeutic agents
- fibronectin staining of tumors ([5]; 10 mg/kg BCNU + 35 mg/kg KCC009 i.p., 4 daily doses, versus BCNU alone): decrease in fibronectin staining overall and an apparent dramatic decrease in the extracellular matrix
- gross tumor size and brain swelling ([5]; 12.5 mg/kg or 25 mg/kg, 4 daily doses from day 11): smaller tumors and reduced brain swelling
- gross tumor ([5]; 50 mg/kg, 4 daily doses from day 11, one mouse): did not have any gross tumor
- sensitization to radiation ([6]; 20 Gy radiation): dramatically sensitized meningioma cells to radiation
- association between TG2 and fibronectin ([6]; fibronectin immunoprecipitate, anti-TG2 Western blot): loss of association between TG2 and fibronectin
- jejunal TG2 activity [7]: 5.5±3 pmol/min/mg protein
